Laboratory results as given in patent publication US9005575B2, “Arg-Gly-Asp-conjugated alpha-melanocyte stimulating hormone hybrid peptide for use in diagnosing and treating melanoma, including metastatic melanoma and methods related to same” (STC.UNM, priority 2009, dated 2015).
Where two headings read alike, the source gives them in different places. Positions of bridges follow the written chain, without caps; N, C: chain ends. Non-standard residues stand in square brackets, D forms with d. Residues, ends and D or L forms follow the SMILES beside them.

Assay: Biodistribution in B16/F1 melanoma-bearing C57 mice
Assay type: in vivo
Conditions: female, C57, mouse, iv, total radioactivity; for tissue uptake at 0.5 h / tissue to tissue ratio at 0.5 h: 0.5 h post-injection; for tissue uptake at 2 h / tissue to tissue ratio at 2 h: 2 h post-injection; for tissue uptake at 4 h / tissue to tissue ratio at 4 h: 4 h post-injection; for tissue uptake at 24 h / tissue to tissue ratio at 24 h: 24 h post-injection
Experimental: All the animal studies were conducted in compliance with Institutional Animal Care and Use Committee approval. The pharmacokinetics of ^99mTc-RGD-Lys-(Arg^11)CCMSH was determined in B16/F1 melanoma-bearing C57 female mice (Harlan, Indianapolis, Ind.). C57 mice were subcutaneously inoculated on the right flank with 1×10^6 B16/F1 cells. The weight of tumors reached approximately 0.2 g 10 days post cell inoculation. Each melanoma-bearing mouse was injected with 0.037 MBq of ^99mTc-RGD-Lys-(Arg^11)CCMSH via the tail vein. Groups of 5 mice were sacrificed at 0.5, 2, 4 and 24 h post-injection, and tumors and organs of interest were harvested, weighed and counted. Blood values were taken as 6.5% of the whole-body weight. The MC1 receptor specificity of the tumor uptake was determined at 2 h post-injection by co-injecting ^99mTc-RGD-Lys-(Arg^11)CCMSH with 10 μg (6.1 nmol) of unlabeled NDP-MSH, a linear α-MSH peptide analogue with picomolar affinity for the MC1 receptors present on murine melanoma cells. The co-injection of 3.5 μg (6.1 nmol) of RGD peptide was performed to determine the αvβ3 integrin specificity of the tumor uptake 2 h post-injection. Statistical analysis was performed using the Student's t-test for unpaired data.
All the animal studies were conducted in compliance with Institutional Animal Care and Use Committee approval. The pharmacokinetics of ^99mTc-RGD-Arg-(Arg^11)CCMSH was determined in B16/F1 melanoma-bearing C57 female mice (Harlan, Indianapolis, Ind.). C57 mice were subcutaneously inoculated on the right flank with 1×10^6 B16/F1 cells. The weight of tumors reached approximately 0.2 g 10 days post cell inoculation. Each melanoma-bearing mouse was injected with 0.037 MBq of ^99mTc-RGD-Arg-(Arg^11)CCMSH via the tail vein. Groups of 5 mice were sacrificed at 0.5, 2, 4 and 24 h post-injection, and tumors and organs of interest were harvested, weighed and counted. Blood values were taken as 6.5% of the whole-body weight. The MC1 receptor specificity of the tumor uptake was determined at 2 h post-injection by co-injecting ^99mTc-RGD-Arg-(Arg^11)CCMSH with 10 μg (6.1 nmol) of unlabeled NDP-MSH. The co-injection of 3.5 μg (6.1 nmol) of RGD peptide was performed to determine the αvβ3 integrin specificity of the tumor uptake at 2 h post-injection.

[1] = pancreas, 0.037 MBq, read-out: Pancreas, Percentage Injected Dose/gram
[2] = skin, 0.037 MBq, read-out: Skin, Percentage Injected Dose/gram
[3] = spleen, 0.037 MBq, read-out: Spleen, Percentage Injected Dose/gram
[4] = stomach, 0.037 MBq, read-out: Stomach, Percentage Injected Dose/gram
[5] = tumor, 0.037 MBq, read-out: Tumor, Percentage Injected Dose/gram
[6] = tumor/blood, 0.037 MBq, read-out: Uptake Ratio Tumor/Blood
[7] = tumor/kidneys, 0.037 MBq, read-out: Uptake Ratio Tumor/Kidneys
[8] = tumor/liver, 0.037 MBq, read-out: Uptake Ratio Tumor/Liver
[9] = tumor/lung, 0.037 MBq, read-out: Uptake Ratio Tumor/Lung
[10] = tumor/muscle, 0.037 MBq, read-out: Uptake Ratio Tumor/Muscle

Q: For `CC(C)[C@H](NC(=O)[C@@H]1CCCN1C(=O)[C@H](CCCNC(=N)N)NC(=O)[C@H](CS)NC(=O)[C@H](Cc1c[nH]c2ccccc12)NC(=O)[C@H](CCCNC(=N)N)NC(=O)[C@@H](Cc1ccccc1)NC(=O)[C@H](Cc1c[nH]cn1)NC(=O)[C@H](CCC(=O)O)NC(=O)[C@H](CS)NC(=O)[C@H](CS)NC(=O)[C@H](CCCCN)NC(=O)[C@@H]1CC(=O)N[C@@H](CCCNC(=N)N)C(=O)NCC(=O)N[C@@H](CC(=O)O)C(=O)N[C@H](Cc2ccc(O)cc2)C(=O)N1)C(N)=O` [^99mTc-RGD-Lys-(Arg^11)CCMSH, metal not drawn] (RGD[dY]DKCCEH[dF]RWCRPV-NH2; lactam N-5), which tissue uptake (normal organs except kidneys, 0.037 MBq, after 2 h post-injection, read-out: Normal organ uptakes except for the kidneys) is on record?
A: Its tissue uptake is under 3.2 %ID/g.

Q: What about the tissue uptake at 0.5 h [1] of the same compound?
A: Its tissue uptake at 0.5 h is 1.48 ± 1.24 %ID/g.

Q: And the tissue uptake at 2 h [1]?
A: The tissue uptake at 2 h was 0.72 ± 0.53 %ID/g.

Q: What about the tissue uptake at 4 h [1] of the same compound?
A: Its tissue uptake at 4 h is 0.52 ± 0.41 %ID/g.

Q: What about the tissue uptake at 24 h [1] of the same compound?
A: The tissue uptake at 24 h was 0.25 ± 0.06 %ID/g.

Q: And the tissue uptake at 2 h (pancreas, NDP blockade (10 μg NDP-MSH co-injected), read-out: Pancreas, Percentage Injected Dose/gram)?
A: The tissue uptake at 2 h was 0.44 ± 0.37 %ID/g.

Q: What about the tissue uptake at 2 h (pancreas, RGD blockade (3.5 μg RGD co-injected), read-out: Pancreas, Percentage Injected Dose/gram) of the same compound?
A: Its tissue uptake at 2 h is 0.35 ± 0.19 %ID/g.

Q: What about the tissue uptake at 0.5 h [2] of the same compound?
A: Its tissue uptake at 0.5 h is 4.53 ± 0.88 %ID/g.

Q: And the tissue uptake at 2 h [2]?
A: Its tissue uptake at 2 h is 1.52 ± 0.66 %ID/g.

Q: What about the tissue uptake at 4 h [2] of the same compound?
A: The tissue uptake at 4 h was 1.17 ± 0.61 %ID/g.

Q: What about the tissue uptake at 24 h [2] of the same compound?
A: Its tissue uptake at 24 h is 0.78 ± 0.19 %ID/g.

Q: What about the tissue uptake at 2 h (skin, NDP blockade (10 μg NDP-MSH co-injected), read-out: Skin, Percentage Injected Dose/gram) of the same compound?
A: Its tissue uptake at 2 h is 1.14 ± 0.38 %ID/g.

Q: What about the tissue uptake at 2 h (skin, RGD blockade (3.5 μg RGD co-injected), read-out: Skin, Percentage Injected Dose/gram) of the same compound?
A: The tissue uptake at 2 h was 0.81 ± 0.13 %ID/g.

Q: And the tissue uptake at 0.5 h [3]?
A: Its tissue uptake at 0.5 h is 2.18 ± 0.88 %ID/g.

Q: What about the tissue uptake at 2 h [3] of the same compound?
A: The tissue uptake at 2 h was 1.23 ± 0.62 %ID/g.

Q: What about the tissue uptake at 4 h [3] of the same compound?
A: Its tissue uptake at 4 h is 1.14 ± 0.16 %ID/g.

Q: What about the tissue uptake at 24 h [3] of the same compound?
A: Its tissue uptake at 24 h is 0.88 ± 0.3 %ID/g.

Q: What about the tissue uptake at 2 h (spleen, NDP blockade (10 μg NDP-MSH co-injected), read-out: Spleen, Percentage Injected Dose/gram) of the same compound?
A: The tissue uptake at 2 h was 0.75 ± 0.37 %ID/g.

Q: And the tissue uptake at 2 h (spleen, RGD blockade (3.5 μg RGD co-injected), read-out: Spleen, Percentage Injected Dose/gram)?
A: The tissue uptake at 2 h was 0.94 ± 0.3 %ID/g.

Q: And the tissue uptake at 0.5 h [4]?
A: The tissue uptake at 0.5 h was 7.61 ± 1.98 %ID/g.

Q: What about the tissue uptake at 2 h [4] of the same compound?
A: Its tissue uptake at 2 h is 2.57 ± 0.38 %ID/g.

Q: What about the tissue uptake at 4 h [4] of the same compound?
A: Its tissue uptake at 4 h is 2.46 ± 1.39 %ID/g.

Q: What about the tissue uptake at 24 h [4] of the same compound?
A: Its tissue uptake at 24 h is 0.91 ± 0.67 %ID/g.

Q: And the tissue uptake at 2 h (stomach, NDP blockade (10 μg NDP-MSH co-injected), read-out: Stomach, Percentage Injected Dose/gram)?
A: Its tissue uptake at 2 h is 2.43 ± 0.8 %ID/g.

Q: What about the tissue uptake at 2 h (stomach, RGD blockade (3.5 μg RGD co-injected), read-out: Stomach, Percentage Injected Dose/gram) of the same compound?
A: Its tissue uptake at 2 h is 2.64 ± 0.1 %ID/g.

Q: And the tissue uptake at 0.5 h [5]?
A: Its tissue uptake at 0.5 h is 11.1 ± 1.41 %ID/g.

Q: What about the tissue uptake at 2 h [5] of the same compound?
A: The tissue uptake at 2 h was 14.8 ± 2.94 %ID/g.

Q: And the tissue uptake at 4 h [5]?
A: Its tissue uptake at 4 h is 12.6 ± 2.53 %ID/g.

Q: What about the tissue uptake at 24 h [5] of the same compound?
A: Its tissue uptake at 24 h is 7.59 ± 2.04 %ID/g.

Q: And the tissue uptake at 2 h (tumor, NDP blockade (10 μg NDP-MSH co-injected), read-out: Tumor, Percentage Injected Dose/gram)?
A: Its tissue uptake at 2 h is 1.81 ± 0.64 %ID/g.

Q: What about the tissue uptake at 2 h (tumor, RGD blockade (3.5 μg RGD co-injected), read-out: Tumor, Percentage Injected Dose/gram) of the same compound?
A: The tissue uptake at 2 h was 10.5 ± 1.18 %ID/g.

Q: And the tissue to tissue ratio at 0.5 h [6]?
A: Its tissue to tissue ratio at 0.5 h is 3.48.

Q: What about the tissue to tissue ratio at 2 h [6] of the same compound?
A: The tissue to tissue ratio at 2 h was 15.4.

Q: What about the tissue to tissue ratio at 4 h [6] of the same compound?
A: The tissue to tissue ratio at 4 h was 25.1.

Q: What about the tissue to tissue ratio at 24 h [6] of the same compound?
A: Its tissue to tissue ratio at 24 h is 69.

Q: What about the tissue to tissue ratio at 2 h (tumor/blood, NDP blockade (10 μg NDP-MSH co-injected), read-out: Uptake Ratio Tumor/Blood) of the same compound?
A: Its tissue to tissue ratio at 2 h is 5.66.

Q: And the tissue to tissue ratio at 2 h (tumor/blood, RGD blockade (3.5 μg RGD co-injected), read-out: Uptake Ratio Tumor/Blood)?
A: The tissue to tissue ratio at 2 h was 19.8.

Q: What about the tissue to tissue ratio at 0.5 h [7] of the same compound?
A: Its tissue to tissue ratio at 0.5 h is 0.16.

Q: And the tissue to tissue ratio at 2 h [7]?
A: The tissue to tissue ratio at 2 h was 0.22.

Q: What about the tissue to tissue ratio at 4 h [7] of the same compound?
A: The tissue to tissue ratio at 4 h was 0.18.

Q: What about the tissue to tissue ratio at 24 h [7] of the same compound?
A: The tissue to tissue ratio at 24 h was 0.19.

Q: What about the tissue to tissue ratio at 2 h (tumor/kidneys, NDP blockade (10 μg NDP-MSH co-injected), read-out: Uptake Ratio Tumor/Kidneys) of the same compound?
A: Its tissue to tissue ratio at 2 h is 0.03.

Q: And the tissue to tissue ratio at 2 h (tumor/kidneys, RGD blockade (3.5 μg RGD co-injected), read-out: Uptake Ratio Tumor/Kidneys)?
A: The tissue to tissue ratio at 2 h was 0.19.

Q: And the tissue to tissue ratio at 0.5 h [8]?
A: The tissue to tissue ratio at 0.5 h was 2.75.

Q: And the tissue to tissue ratio at 2 h [8]?
A: The tissue to tissue ratio at 2 h was 4.68.

Q: And the tissue to tissue ratio at 4 h [8]?
A: The tissue to tissue ratio at 4 h was 4.32.

Q: What about the tissue to tissue ratio at 24 h [8] of the same compound?
A: The tissue to tissue ratio at 24 h was 4.39.

Q: What about the tissue to tissue ratio at 2 h (tumor/liver, NDP blockade (10 μg NDP-MSH co-injected), read-out: Uptake Ratio Tumor/Liver) of the same compound?
A: The tissue to tissue ratio at 2 h was 0.63.

Q: What about the tissue to tissue ratio at 2 h (tumor/liver, RGD blockade (3.5 μg RGD co-injected), read-out: Uptake Ratio Tumor/Liver) of the same compound?
A: The tissue to tissue ratio at 2 h was 4.63.

Q: And the tissue to tissue ratio at 0.5 h [9]?
A: The tissue to tissue ratio at 0.5 h was 2.08.

Q: What about the tissue to tissue ratio at 2 h [9] of the same compound?
A: The tissue to tissue ratio at 2 h was 11.8.

Q: What about the tissue to tissue ratio at 4 h [9] of the same compound?
A: The tissue to tissue ratio at 4 h was 11.8.

Q: And the tissue to tissue ratio at 24 h [9]?
A: The tissue to tissue ratio at 24 h was 8.07.

Q: And the tissue to tissue ratio at 2 h (tumor/lung, NDP blockade (10 μg NDP-MSH co-injected), read-out: Uptake Ratio Tumor/Lung)?
A: The tissue to tissue ratio at 2 h was 1.38.

Q: What about the tissue to tissue ratio at 2 h (tumor/lung, RGD blockade (3.5 μg RGD co-injected), read-out: Uptake Ratio Tumor/Lung) of the same compound?
A: Its tissue to tissue ratio at 2 h is 9.38.

Q: And the tissue to tissue ratio at 0.5 h [10]?
A: The tissue to tissue ratio at 0.5 h was 29.1.

Q: What about the tissue to tissue ratio at 2 h [10] of the same compound?
A: Its tissue to tissue ratio at 2 h is 43.6.

Q: And the tissue to tissue ratio at 4 h [10]?
A: The tissue to tissue ratio at 4 h was 96.7.

Q: What about the tissue to tissue ratio at 24 h [10] of the same compound?
A: Its tissue to tissue ratio at 24 h is 33.

Q: What about the tissue to tissue ratio at 2 h (tumor/muscle, NDP blockade (10 μg NDP-MSH co-injected), read-out: Uptake Ratio Tumor/Muscle) of the same compound?
A: The tissue to tissue ratio at 2 h was 8.62.

Q: And the tissue to tissue ratio at 2 h (tumor/muscle, RGD blockade (3.5 μg RGD co-injected), read-out: Uptake Ratio Tumor/Muscle)?
A: The tissue to tissue ratio at 2 h was 70.
